# Data: ChEMBL document CHEMBL1137172, “A library synthesis of 4-hydroxy-3-methyl-6-phenylbenzofuran-2-carboxylic acid ethyl ester derivatives as anti-tumor agents” (Bioorg Med Chem Lett, 2004)
# Assays:
# WI-38 = assay: Effective concentration required for cytotoxicity against normal human WI-38 cell line; format: functional, cell-based
# [1] = Effective concentration required for cytotoxicity against human VA-13 cell line; format: functional, cell-based
# [2] = Partition coefficient (logP); format: physicochemical; details: octanol/water
structure (smiles),measurement,setting,value
CCOC(=O)c1oc2cc(-c3ccccc3)cc(O)c2c1C,EC50,WI-38,> 4 µg/mL
same,EC50,[1],0.04 µg/mL
same,logP,[2],2.6
CCOC(=O)c1oc2cc(-c3ccc(OCC)cc3)cc(O)c2c1C,EC50,[1],> 4 µg/mL
CCOC(=O)c1oc2cc(-c3cccc(O)c3)cc(O)c2c1C,EC50,[1],0.52 µg/mL
CCOC(=O)c1oc2cc(-c3ccc(OC)cc3)cc(O)c2c1C,EC50,[1],> 4 µg/mL
CCOC(=O)c1oc2cc(-c3ccccc3OCc3ccccc3)cc(O)c2c1C,EC50,[1],> 4 µg/mL
CCOC(=O)c1oc2cc(-c3ccc(O)cc3)cc(O)c2c1C,EC50,[1],0.075 µg/mL
CCOC(=O)c1oc2cc(-c3cccc(OC)c3)cc(O)c2c1C,EC50,[1],0.08 µg/mL
CCOC(=O)c1oc2cc(-c3ccc(Br)cc3)cc(O)c2c1C,EC50,[1],> 4 µg/mL
CCOC(=O)c1oc2cc(-c3ccccc3O)cc(O)c2c1C,EC50,[1],0.31 µg/mL
CCOC(=O)c1oc2cc(-c3cccc(OCc4ccccc4)c3)cc(O)c2c1C,EC50,[1],0.85 µg/mL
COc1cccnc1C(=O)c1oc2cc(-c3ccccc3)cc(O)c2c1C,EC50,[1],0.028 µg/mL
same,logP,[2],2.2
CCOC(=O)c1oc2cc(-c3c(Cl)cccc3Cl)cc(O)c2c1C,EC50,[1],> 4 µg/mL
CCOC(=O)c1oc2cc(-c3ccccc3OC)cc(O)c2c1C,EC50,[1],0.38 µg/mL
COc1ccc(C(=O)c2[nH]c3cc(-c4cccc(F)c4)cc(O)c3c2C)c(OC)c1,EC50,[1],0.12 µg/mL
same,logP,[2],2.7
CCOC(=O)c1oc2cc(-c3cccc([N+](=O)[O-])c3)cc(O)c2c1C,EC50,[1],0.075 µg/mL
CCOC(=O)c1oc2cc(-c3ccccc3Cl)cc(O)c2c1C,EC50,[1],0.35 µg/mL
CCOC(=O)c1oc2cc(-c3cccc(Cl)c3)cc(O)c2c1C,EC50,[1],0.08 µg/mL
CCOC(=O)c1oc2cc(-c3ccc(OCc4ccccc4)cc3)cc(O)c2c1C,EC50,[1],> 4 µg/mL
CCOC(=O)c1oc2cc(-c3cccc(C(F)(F)F)c3)cc(O)c2c1C,EC50,[1],0.7 µg/mL
CCOC(=O)c1oc2cc(CC(C)(C)C)cc(O)c2c1C,EC50,[1],> 4 µg/mL
CCOC(=O)c1oc2cc(-c3cccc(Br)c3)cc(O)c2c1C,EC50,[1],0.085 µg/mL
COc1ccc(C(=O)c2oc3cc(-c4cccc(F)c4)cc(O)c3c2C)c(OC)c1,EC50,[1],0.03 µg/mL
same,logP,[2],2.7
CCOC(=O)c1oc2cc(-c3cccs3)cc(O)c2c1C,EC50,[1],0.16 µg/mL
CCOC(=O)c1oc2cc(-c3cccc(C)c3)cc(O)c2c1C,EC50,[1],0.08 µg/mL
CCOC(=O)c1oc2cc(-c3cccc(F)c3)cc(O)c2c1C,EC50,[1],0.017 µg/mL
same,logP,[2],2.7
COc1cccnc1C(=O)c1oc2cc(-c3cccc(F)c3)cc(O)c2c1C,EC50,[1],0.027 µg/mL
same,logP,[2],2.3
CCOC(=O)c1[nH]c2cc(-c3ccccc3)cc(O)c2c1C,EC50,[1],0.47 µg/mL
same,logP,[2],2.6
COc1ccc(C(=O)c2oc3cc(-c4ccccc4)cc(O)c3c2C)c(OC)c1,EC50,[1],0.04 µg/mL
same,logP,[2],2.6
CCOC(=O)c1oc2cc(C3CCCCC3)cc(O)c2c1C,EC50,[1],> 4 µg/mL
CCOC(=O)c1oc2cc(-c3c(F)cccc3Cl)cc(O)c2c1C,EC50,[1],> 4 µg/mL
CCOC(=O)c1oc2cc(-c3ccc(OCCc4ccccc4)cc3)cc(O)c2c1C,EC50,[1],> 4 µg/mL
CCOC(=O)c1oc2cc(-c3ccc(Cl)cc3Cl)cc(O)c2c1C,EC50,[1],> 4 µg/mL
CCOC(=O)c1oc2cc(-c3cccc(N)c3)cc(O)c2c1C,EC50,[1],0.09 µg/mL
CCOC(=O)c1oc2cc(-c3ccc(C)cc3)cc(O)c2c1C,EC50,[1],> 4 µg/mL
CCOC(=O)c1oc2cc(-c3ccccc3Br)cc(O)c2c1C,EC50,[1],0.39 µg/mL
CCOC(=O)c1oc2cc(-c3ccco3)cc(O)c2c1C,EC50,[1],0.18 µg/mL
CCOC(=O)c1oc2cc(-c3ccc(OC)c(OC)c3)cc(O)c2c1C,EC50,[1],> 4 µg/mL
CCOC(=O)c1oc2cc(-c3ccccc3F)cc(O)c2c1C,EC50,[1],0.048 µg/mL
CCOC(=O)c1oc2cc(-c3ccc(Cl)cc3)cc(O)c2c1C,EC50,[1],> 4 µg/mL
CCOC(=O)c1oc2cc(-c3ccc(F)cc3)cc(O)c2c1C,EC50,[1],0.37 µg/mL
